# According to publication PMC5613053 (Investigational New Drugs, 2017):
# Where two headings read alike, the source gives them in different places.
# What was measured:
# [1] = system: Ba/F3 cells expressing FLT3-ITD-D835Y; test: Ba/F3 FLT3-ITD-D835Y subcutaneous xenograft; format: in vivo, mice; settings: up to 7 days
# Procedure: (§1) Once tumor growth had been confirmed, mice xenografted with MV4–11 cells were monitored for 28 days; mice xenografted with Ba/F3 cells expressing FLT3 mutations were monitored for 7 days. Tumor diameter was measured using a caliper, and tumor volume was determined by calculating the volume of an ellipsoid using the formula: length × width^2 × 0.5. Body weight was measured using a standard balance. Data are expressed as mean ± SEM from n = 6 mice/group (MV4–11) and n = 5 mice/group (Ba/F3).
# (§2) After tumor establishment, mice were divided into groups such that the mean tumor volume was approximately equal in each group.
# [2] = Body weight in MV4–11 xenograft study; format: in vivo, mice; settings: 1–10 mg/kg/day oral, 28 days; any tested dose
# Procedure: as §1, §2
# phosphorylated FLT3 = target: T1, phosphorylated FLT3 (Homo sapiens, UniProt P36888, INS600HVDFREYEYD); test: ELISA for phosphorylated FLT3 / total FLT3 in MV4-11 xenograft tumors; format: in vivo, mice
# T1 construct: MV4–11 cells, which endogenously express FLT3-ITD; from tissue; host or cells: MV4-11 xenograft tumours from nude mice
# T1 sequence (P36888 with tags, fused parts or gaps INS600HVDFREYEYD): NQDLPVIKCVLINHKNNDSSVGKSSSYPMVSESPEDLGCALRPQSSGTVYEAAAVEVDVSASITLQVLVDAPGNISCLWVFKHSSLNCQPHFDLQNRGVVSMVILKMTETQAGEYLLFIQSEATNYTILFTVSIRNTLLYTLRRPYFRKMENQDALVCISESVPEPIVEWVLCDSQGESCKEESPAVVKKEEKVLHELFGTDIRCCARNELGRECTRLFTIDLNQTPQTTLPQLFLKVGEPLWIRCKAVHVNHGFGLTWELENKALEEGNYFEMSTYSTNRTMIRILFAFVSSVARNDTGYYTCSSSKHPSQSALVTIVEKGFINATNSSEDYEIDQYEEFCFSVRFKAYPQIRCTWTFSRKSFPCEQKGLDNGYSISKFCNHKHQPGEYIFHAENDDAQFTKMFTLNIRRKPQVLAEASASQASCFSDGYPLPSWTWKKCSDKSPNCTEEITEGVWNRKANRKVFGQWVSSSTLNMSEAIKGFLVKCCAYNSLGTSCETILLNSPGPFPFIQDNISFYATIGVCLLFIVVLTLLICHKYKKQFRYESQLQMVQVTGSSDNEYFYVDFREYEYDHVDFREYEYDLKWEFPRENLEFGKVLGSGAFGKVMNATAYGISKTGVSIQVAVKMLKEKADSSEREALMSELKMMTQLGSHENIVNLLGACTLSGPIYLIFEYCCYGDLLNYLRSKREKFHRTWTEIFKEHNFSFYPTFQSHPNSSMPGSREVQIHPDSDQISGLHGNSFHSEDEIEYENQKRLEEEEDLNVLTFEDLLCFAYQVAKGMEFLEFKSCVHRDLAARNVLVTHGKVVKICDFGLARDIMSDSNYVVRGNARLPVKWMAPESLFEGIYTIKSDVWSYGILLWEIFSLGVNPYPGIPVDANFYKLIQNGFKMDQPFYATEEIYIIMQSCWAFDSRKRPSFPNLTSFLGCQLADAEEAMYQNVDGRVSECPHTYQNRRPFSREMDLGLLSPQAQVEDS
# Procedure: Detailed protocols can be found in the online resource.
# After 1 month, mice were divided into groups, with each group having approximately the same mean tumor volume.
# MULTI-ARRAY® 96-well plates (Meso Scale Discovery, Rockville, MD) were coated with capture antibodies for phosphorylated FLT3 or total FLT3 (DuoSet® IC, R&D systems, Minneapolis, MN) and incubated overnight at 4°C with shaking. After washing with TBS-T, coated plates were blocked with 3% MSD® Blocker-A (Meso Scale Discovery) in TBS-T for 1 h at room temperature and then incubated with total protein lysates derived from MV4-11 xenografted tumors (500 μg/well for phosphorylated FLT3 and 20 μg/well for FLT3), overnight at 4°C. Following a wash step, anti-phosphotyrosine antibody (clone 4G10®, Biotin Conjugate [Millipore, Billerica, MA]) for the detection of phosphorylated FLT3 or the DuoSet® IC FLT3 detection antibody for total FLT3 were added to the plate and incubated for 2 h at room temperature. Wells were then washed and incubated with MSD® SULFO-TAG Labeled Streptavidin (Meso Scale Discovery) for 1 h at room temperature, followed by the addition of MSD® Read Buffer (Meso Scale Discovery). Electrochemiluminescent signals were measured using a SECTOR® imager (Meso Scale Discovery). Phosphorylation levels were normalized to total FLT3 levels in each group (3 mice/group except the point at 1 h after the administration of 1 mg/kg [2 mice]) relative to the mean value of the control group (5 mice/group). Data are reported as mean ± SEM.
# [3] = Pharmacokinetics in MV4–11 xenografted nude mice (plasma and tumor); format: in vivo; settings: for AUC(0-t) / Cmax / Tmax: nude, mouse; for AUC(0-t): read-out: AUCt, plasma concentration; for Tmax: read-out: Time of maximal plasma concentration
# Procedure: Tumor samples were also collected from each mouse and tumor weight was measured.
# [4] = system: Ba/F3 cells expressing FLT3-D835Y; test: Ba/F3 FLT3-D835Y subcutaneous xenograft; format: in vivo, mice; settings: up to 7 days
# Procedure: as §1, §2
# c-KIT = target: T2, c-KIT (Homo sapiens, UniProt P10721); test: Kinase inhibitory assay (TK-ELISA / off-chip MSA); format: biochemical
# T2 construct: purchased Carna Biosciences, Inc
# T2 sequence (P10721 26-976): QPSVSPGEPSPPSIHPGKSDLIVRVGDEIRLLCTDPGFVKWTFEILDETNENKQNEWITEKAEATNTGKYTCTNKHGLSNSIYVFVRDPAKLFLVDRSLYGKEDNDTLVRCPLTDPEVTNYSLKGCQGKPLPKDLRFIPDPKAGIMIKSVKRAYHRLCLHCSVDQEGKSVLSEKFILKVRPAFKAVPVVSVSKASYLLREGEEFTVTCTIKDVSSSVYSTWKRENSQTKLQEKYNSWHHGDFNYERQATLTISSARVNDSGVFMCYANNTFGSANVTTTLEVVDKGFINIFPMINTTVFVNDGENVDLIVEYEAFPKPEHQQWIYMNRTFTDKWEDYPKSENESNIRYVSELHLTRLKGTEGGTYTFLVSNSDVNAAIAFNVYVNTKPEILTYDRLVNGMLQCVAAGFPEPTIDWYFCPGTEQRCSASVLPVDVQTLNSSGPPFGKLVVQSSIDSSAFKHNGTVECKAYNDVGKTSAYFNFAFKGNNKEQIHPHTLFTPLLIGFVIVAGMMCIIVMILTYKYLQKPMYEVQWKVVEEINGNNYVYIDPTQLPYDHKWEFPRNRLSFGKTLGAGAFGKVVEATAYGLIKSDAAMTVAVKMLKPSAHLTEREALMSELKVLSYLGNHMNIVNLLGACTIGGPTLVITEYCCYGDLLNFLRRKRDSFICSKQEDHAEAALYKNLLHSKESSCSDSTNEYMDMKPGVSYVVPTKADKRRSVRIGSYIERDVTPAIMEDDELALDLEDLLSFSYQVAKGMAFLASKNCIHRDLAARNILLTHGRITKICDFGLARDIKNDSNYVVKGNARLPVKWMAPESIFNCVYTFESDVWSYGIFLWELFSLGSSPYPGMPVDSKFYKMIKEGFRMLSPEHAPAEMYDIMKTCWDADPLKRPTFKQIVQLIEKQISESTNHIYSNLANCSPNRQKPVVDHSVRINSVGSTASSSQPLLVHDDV
# FLT3 = FLT3 (Homo sapiens, UniProt P36888); test: biochemical; settings: read-out: Inhibition of kinase activity
# FLT3, sequence (P36888 27-993): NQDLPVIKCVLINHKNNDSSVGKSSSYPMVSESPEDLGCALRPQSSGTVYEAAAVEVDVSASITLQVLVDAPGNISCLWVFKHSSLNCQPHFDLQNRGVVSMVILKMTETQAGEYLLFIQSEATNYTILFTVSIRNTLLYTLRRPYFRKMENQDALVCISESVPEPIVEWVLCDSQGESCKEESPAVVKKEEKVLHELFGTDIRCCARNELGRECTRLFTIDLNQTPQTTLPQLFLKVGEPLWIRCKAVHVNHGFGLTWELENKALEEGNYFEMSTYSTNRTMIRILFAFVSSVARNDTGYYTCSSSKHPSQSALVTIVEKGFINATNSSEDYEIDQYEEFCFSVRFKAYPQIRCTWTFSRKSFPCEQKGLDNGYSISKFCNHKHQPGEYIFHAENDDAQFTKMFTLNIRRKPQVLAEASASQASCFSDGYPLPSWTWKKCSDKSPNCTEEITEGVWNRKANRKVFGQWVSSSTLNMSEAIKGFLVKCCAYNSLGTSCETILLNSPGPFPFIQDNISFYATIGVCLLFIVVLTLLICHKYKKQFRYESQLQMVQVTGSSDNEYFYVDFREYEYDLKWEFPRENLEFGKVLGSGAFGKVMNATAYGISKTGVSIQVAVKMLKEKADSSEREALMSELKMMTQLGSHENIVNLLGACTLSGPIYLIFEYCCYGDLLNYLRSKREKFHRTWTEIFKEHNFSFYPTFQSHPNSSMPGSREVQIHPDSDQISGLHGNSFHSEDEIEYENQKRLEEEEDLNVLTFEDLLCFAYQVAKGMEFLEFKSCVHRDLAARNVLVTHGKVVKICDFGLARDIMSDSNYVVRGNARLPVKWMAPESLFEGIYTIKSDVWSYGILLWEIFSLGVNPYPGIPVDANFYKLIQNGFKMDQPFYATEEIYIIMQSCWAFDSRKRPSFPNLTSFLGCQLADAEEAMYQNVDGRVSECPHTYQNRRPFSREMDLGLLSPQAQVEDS
# Procedure: These assays were conducted according to the manufacturer’s instructions. […] TK-ELISA and MSA assays were used to conduct IC50 studies for FLT3, LTK, AXL, and c-KIT; the HTRF® KinEASE™-TK assay (Sceti Medical Labo, Tokyo, Japan) was performed according to the manufacturer’s protocol to assess the IC50 value of echinoderm microtubule-associated protein-like 4-ALK (EML4-ALK; three individual experiments for each kinase).
# [5] = system: parental Ba/F3 cells in the presence of IL-3; test: CellTiter-Glo cell viability, off-target; format: cell-based; settings: Mus musculus, BaF3, 48 h; IL-3 present; 2 days of treatment; off-target inhibition; read-out: Cell growth inhibition IC50
# Procedure: A detailed protocol is provided in the online resource.
# The assay was performed in either triplicate or quadruplicate. […] The geometric mean was calculated from three individual experiments.
structure (smiles),measurement,setting,value
CCc1nc(C(N)=O)c(Nc2ccc(N3CCC(N4CCN(C)CC4)CC3)c(OC)c2)nc1NC1CCOCC1 [gilteritinib],Antitumor effect (tumor volume),[1]; 10 mg/kg once-daily oral,showed antitumor efficacy
same,Antitumor effect (tumor volume),[1]; 30 mg/kg once-daily oral,induced tumor regression
same,Body weight,[2],not affected
same,Phospho-FLT3 state in tumor,"phosphorylated FLT3; single oral 1 mg/kg, by 24 h",returned to the pre-treatment level
same,Decrease in phospho-FLT3 in tumor,"phosphorylated FLT3; single oral 10 mg/kg, 24 h period",maintained throughout the 24 h experimental period
same,Decrease of phosphorylated FLT3 in tumor compared with control,phosphorylated FLT3; within 1 h after single oral 1–10 mg/kg,approximately 40%
same,AUC(0-t),"[3]; plasma, single oral 1 mg/kg",25.2 ng·h/mL
same,Cmax,"[3]; plasma, single oral 1 mg/kg, read-out: Cmax, plasma concentration",6.56 ng/mL
same,Tmax,"[3]; plasma, single oral 1 mg/kg",2 h
same,AUC(0-t),"[3]; plasma, single oral 6 mg/kg",269 ng·h/mL
same,Cmax,"[3]; plasma, single oral 6 mg/kg, read-out: Cmax, plasma concentration",45.9 ng/mL
same,Tmax,"[3]; plasma, single oral 6 mg/kg",2 h
same,AUC(0-t),"[3]; plasma, single oral 10 mg/kg",493 ng·h/mL
same,Cmax,"[3]; plasma, single oral 10 mg/kg, read-out: Cmax, plasma concentration",83 ng/mL
same,Tmax,"[3]; plasma, single oral 10 mg/kg",2 h
same,Cmax,"[3]; tumor, single oral 1 mg/kg, read-out: Cmax, intratumor concentration",90.6 ng/g
same,Cmax,"[3]; tumor, single oral 6 mg/kg, read-out: Cmax, intratumor concentration",772 ng/g
same,Cmax,"[3]; tumor, single oral 10 mg/kg, read-out: Cmax, intratumor concentration",1120 ng/g
same,Concentration in tumors compared with plasma,"[3]; single oral 1, 6, 10 mg/kg, each time point",higher than that in plasma at each time point
same,"AUCt, intratumor concentration","[3]; tumor, single oral 1 mg/kg",1186 ng·h/g
same,Time of maximal intratumor concentration,"[3]; tumor, single oral 1 mg/kg",4 h
same,"AUCt, intratumor concentration","[3]; tumor, single oral 6 mg/kg",12880 ng·h/g
same,Time of maximal intratumor concentration,"[3]; tumor, single oral 6 mg/kg",8 h
same,"AUCt, intratumor concentration","[3]; tumor, single oral 10 mg/kg",17330 ng·h/g
same,Time of maximal intratumor concentration,"[3]; tumor, single oral 10 mg/kg",8 h
same,Antitumor effect (tumor volume),[4]; 10 mg/kg once-daily oral,showed antitumor efficacy
same,Antitumor effect (tumor volume),[4]; 30 mg/kg once-daily oral,induced tumor regression
same,IC50,c-KIT,230 nM
same,inhibition at 0.001 µM,FLT3,> 50%
same,IC50,[5],420 nM
